Converted amounts (≈) assume the structure as drawn.

The term kinetic solubility denotes solubility judged after dilution from a stock solution rather than from solid. Broadly, the MIC is the lowest concentration found to suppress growth. The term MBC denotes the smallest concentration meeting the test's criterion for killing.

The nature of data set [1]: Solubility of compound in PBS after 2 hrs by turbidity based absorbance analysis. Type of data set: physicochemical.
The next data set relates to Staphylococcus aureus. The data set can be described thus: Antibacterial activity against methicillin resistant Staphylococcus aureus USA400 assessed as reduction in bacterial cell growth incubated for 18 to 20 hrs by broth microdilution method. Format: functional.
Data set [2] deals with Acinetobacter baumannii. The data set is described as follows: Antibacterial activity against Acinetobacter baumannii ATCC 19606 assessed as reduction in bacterial cell growth incubated for 18 to 20 hrs by broth microdilution method. Type of data set: functional.
Data set [3] deals with Escherichia coli. The data set is described as follows: Antibacterial activity against Escherichia coli BW25113 assessed as reduction in bacterial cell growth incubated for 18 to 20 hrs by broth microdilution method. Format: functional. On the technique in general: In broth dilution the organism is exposed to a series of concentrations in liquid medium.
For data set [4], the system named is Escherichia coli. The data set can be described thus: Antibacterial activity against Escherichia coli JW55031 harboring deltatolC mutant assessed as reduction in bacterial cell growth incubated for 18 to 20 hrs by broth microdilution method. Type of data set: functional.
For data set [5], the system named is Klebsiella pneumoniae. The data set can be described thus: Antibacterial activity against Klebsiella pneumoniae BAA-1706 assessed as reduction in bacterial cell growth incubated for 18 to 20 hrs by broth microdilution method. Format: functional.
The test system of data set [6] is Pseudomonas aeruginosa. The data set can be described thus: Antibacterial activity against Pseudomonas aeruginosa ATCC 15442 assessed as reduction in bacterial cell growth incubated for 18 to 20 hrs by broth microdilution method. Type of data set: functional.
Data set [7] concerns Acinetobacter baumannii. The data set can be described thus: Bactericidal activity against Acinetobacter baumannii ATCC 19606 assessed as reduction in bacterial cell growth incubated for 18 to 20 hrs followed by re-plating on tryptic soy agar plates at 37 degC for 18 hrs by broth microdilution assay. Format: functional.
Data set [8] has as its system Escherichia coli. The data set can be described thus: BActericidal activity against Escherichia coli BW25113 assessed as reduction in bacterial cell growth incubated for 18 to 20 hrs followed by re-plating on tryptic soy agar plates at 37 degC for 18 hrs by broth microdilution assay. Format: functional.
Data set [9] concerns Escherichia coli. The data set is described as follows: Bactericidal activity against Escherichia coli JW55031 harboring deltatolC mutant assessed as reduction in bacterial cell growth incubated for 18 to 20 hrs followed by re-plating on tryptic soy agar plates at 37 degC for 18 hrs by broth microdilution assay. Type of data set: functional.
Data set [10] concerns Klebsiella pneumoniae. The data set is described as follows: Bactericidal activity against Klebsiella pneumoniae BAA-1706 assessed as reduction in bacterial cell growth incubated for 18 to 20 hrs followed by re-plating on tryptic soy agar plates at 37 degC for 18 hrs by broth microdilution assay. Type of data set: functional.
Data set [11] relates to Pseudomonas aeruginosa. The data set can be described thus: Bactericidal activity against Pseudomonas aeruginosa ATCC 15442 assessed as reduction in bacterial cell growth incubated for 18 to 20 hrs followed by re-plating on tryptic soy agar plates at 37 degC for 18 hrs by broth microdilution assay. Format: functional.

In data set [1], `C/C(=N\NC(=N)N)c1sc(-c2ccc(C#CC3CCCCC3)cc2)nc1C` had a kinetic solubility at 2 h of 2.7 µM (≈ 1.02 µg/mL).

In the case of `C/C(=N\NC(=N)N)c1sc(-c2ccc(C#Cc3cc(O)ccc3C)cc2)nc1C`, in the data set with Staphylococcus aureus, the MIC was above 64 µg/mL.

`C/C(=N\NC(=N)N)c1sc(-c2ccc(C#Cc3cncnc3)cc2)nc1C`: the MIC in the data set with Staphylococcus aureus is above 64 µg/mL.

Regarding `COC(=O)c1ccccc1C#Cc1ccc(-c2nc(C)c(/C(C)=N/NC(=N)N)s2)cc1`, the MIC with Staphylococcus aureus was determined as 16 µg/mL (≈ 37.1 µM).

Regarding COLISTIN, the minimum inhibitory concentration (MIC) in the data set with Acinetobacter baumannii [2] was below 0.5 µg/mL; in the data set on Escherichia coli [3], below 0.5 µg/mL; in the data set on Escherichia coli [4], below 0.5 µg/mL; in the data set with Klebsiella pneumoniae [5] it was below 0.5 µg/mL; in the data set on Pseudomonas aeruginosa [6], 1 µg/mL. Further, the MBC with Acinetobacter baumannii [7] was below 0.5 µg/mL; in the data set on Escherichia coli [8] it was below 0.5 µg/mL; in the data set on Escherichia coli [9] it was below 0.5 µg/mL; with Klebsiella pneumoniae [10] it was below 0.5 µg/mL; in the data set with Pseudomonas aeruginosa [11], 1 µg/mL.

`C/C(=N\NC(=N)N)c1sc(-c2ccc(C#Cc3ccc(C(N)=S)cc3)cc2)nc1C`: the MIC in the data set on Staphylococcus aureus is 64 µg/mL (≈ 148 µM).

Turning to `C/C(=N\NC(=N)N)c1sc(-c2ccc(C#Cc3ccccc3[N+](=O)[O-])cc2)nc1C`, the MIC with Staphylococcus aureus is above 64 µg/mL.

On to `C/C(=N\NC(=N)N)c1sc(-c2ccc(C#Cc3csc(C)c3C)cc2)nc1C`, for which, in the data set with Staphylococcus aureus, the MIC turned out to be 16 µg/mL (≈ 39.3 µM).

As to `COC(=O)c1cccc(C#Cc2ccc(-c3nc(C)c(/C(C)=N/NC(=N)N)s3)cc2)c1`, the MIC with Staphylococcus aureus was found to be 32 µg/mL (≈ 74.2 µM).

Turning to `C/C(=N\NC(=N)N)c1sc(-c2ccc(C#Cc3ccsc3)cc2)nc1C`, the MIC in the data set with Staphylococcus aureus is above 64 µg/mL.

As to `C/C(=N\NC(=N)N)c1sc(-c2ccc(C#Cc3cccc(N)c3)cc2)nc1C`, the MIC in the data set with Staphylococcus aureus stood at 4 µg/mL (≈ 10.3 µM).

Consider `C/C(=N\NC(=N)N)c1sc(-c2ccc(C#Cc3ccccc3O)cc2)nc1C`, for which the MIC in the data set with Staphylococcus aureus was above 64 µg/mL.

Consider `C/C(=N\NC(=N)N)c1sc(-c2ccc(C#Cc3ccccc3N)cc2)nc1C`, for which the MIC in the data set on Staphylococcus aureus was above 64 µg/mL.

Consider `CC[C@H]1OC(=O)[C@H](C)[C@@H](O[C@H]2C[C@@](C)(OC)[C@@H](O)[C@H](C)O2)[C@H](C)[C@@H](O[C@@H]2O[C@H](C)C[C@H](N(C)C)[C@H]2O)[C@](C)(O)C[C@@H](C)C(=O)[C@H](C)[C@@H](O)[C@]1(C)O` [ERYTHROMYCIN], for which the MIC was 8 µg/mL (≈ 10.9 µM) with Acinetobacter baumannii [2]; 32 µg/mL (≈ 43.6 µM) in the data set with Escherichia coli [3]; 1 µg/mL (≈ 1.36 µM) in the data set on Escherichia coli [4]; 64 µg/mL (≈ 87.2 µM) with Klebsiella pneumoniae [5]; above 64 µg/mL in the data set on Pseudomonas aeruginosa [6]. In addition, the MBC was 16 µg/mL (≈ 21.8 µM) in the data set with Acinetobacter baumannii [7]; above 64 µg/mL in the data set on Escherichia coli [8]; 2 µg/mL (≈ 2.73 µM) in the data set on Escherichia coli [9]; above 64 µg/mL in the data set on Klebsiella pneumoniae [10]; above 64 µg/mL with Pseudomonas aeruginosa [11].

Consider `CCCCc1ccc(-c2nc(C)c(/C(C)=N/NC(=N)N)s2)cc1`, for which, in data set [1], the solubility (kinetic) at 2 h was found to be 65 µM (≈ 21.4 µg/mL).

For the origin of these results see ChEMBL document CHEMBL4393697, “Lipophilic efficient phenylthiazoles with potent undecaprenyl pyrophosphatase inhibitory activity” (Eur J Med Chem, 2019).
